In patent publication US12202843B2, “Muscarinic receptor agonists” (Nxera Pharma UK Limited, priority 2014, dated 2025):

How the values were obtained:
Assay type in all cases: cell-based
[1] = molecular target: T1, human muscarinic M1 receptor (Homo sapiens, UniProt P11229); experiment: Alphascreen Surefire phospho-ERK1/2 functional assay, M1; details: for EC50: CHO cells stably expressing human M1, read-out: pEC50 M1 (converted); for Emax: CHO, read-out: % Emax cf. ACh, M1, CHO cells stably expressing human M1, relative to ACh; for % Emax cf. ACh, M1: CHO cells stably expressing human M1, relative to ACh
T1 sequence (P11229 1-460): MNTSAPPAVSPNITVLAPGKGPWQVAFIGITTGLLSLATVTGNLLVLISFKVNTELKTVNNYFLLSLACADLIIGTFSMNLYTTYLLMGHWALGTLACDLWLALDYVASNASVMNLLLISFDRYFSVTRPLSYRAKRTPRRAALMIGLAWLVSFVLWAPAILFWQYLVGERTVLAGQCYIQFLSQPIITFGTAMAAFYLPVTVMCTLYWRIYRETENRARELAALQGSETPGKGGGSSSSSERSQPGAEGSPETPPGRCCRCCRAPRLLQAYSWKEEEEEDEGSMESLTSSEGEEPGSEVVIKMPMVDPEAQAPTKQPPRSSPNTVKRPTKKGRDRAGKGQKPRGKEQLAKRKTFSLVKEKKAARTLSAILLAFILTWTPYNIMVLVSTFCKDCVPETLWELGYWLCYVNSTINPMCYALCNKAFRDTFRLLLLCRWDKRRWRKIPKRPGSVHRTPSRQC
Procedure: (§1) ERK1/2 phosphorylation is a downstream consequence of both Gq/11 and Gi/o protein coupled receptor activation, making it highly suitable for the assessment of M1, M3 (Gq/11 coupled) and M2, M4 receptors (Gi/o coupled), rather than using different assay formats for different receptor subtypes. CHO cells stably expressing the human muscarinic M1, M2, M3 or M4 receptor were plated (25K/well) onto 96-well tissue culture plates in MEM-alpha+10% dialysed FBS. Once adhered, cells were serum-starved overnight. Agonist stimulation was performed by the addition of 5 μL agonist to the cells for 5 min (37° C.). Media was removed and 50 μL of lysis buffer added. […] Plates were incubated for 2 h with gentle agitation in the dark and then read on a PHERAstar plate reader.
(§2) pEC50 and Emax figures were calculated from the resulting data for each receptor subtype.

[2] = molecular target: T2, human muscarinic M2 receptor (Homo sapiens, UniProt P08172); experiment: Alphascreen Surefire phospho-ERK1/2 functional assay, M2; details: for EC50: CHO cells stably expressing human M2, read-out: pEC50 M2 (converted); for Emax: CHO, read-out: % Emax cf. ACh, M2, CHO cells stably expressing human M2, relative to ACh; for % Emax cf. ACh, M2: CHO cells stably expressing human M2, relative to ACh
T2 sequence (P08172 1-466): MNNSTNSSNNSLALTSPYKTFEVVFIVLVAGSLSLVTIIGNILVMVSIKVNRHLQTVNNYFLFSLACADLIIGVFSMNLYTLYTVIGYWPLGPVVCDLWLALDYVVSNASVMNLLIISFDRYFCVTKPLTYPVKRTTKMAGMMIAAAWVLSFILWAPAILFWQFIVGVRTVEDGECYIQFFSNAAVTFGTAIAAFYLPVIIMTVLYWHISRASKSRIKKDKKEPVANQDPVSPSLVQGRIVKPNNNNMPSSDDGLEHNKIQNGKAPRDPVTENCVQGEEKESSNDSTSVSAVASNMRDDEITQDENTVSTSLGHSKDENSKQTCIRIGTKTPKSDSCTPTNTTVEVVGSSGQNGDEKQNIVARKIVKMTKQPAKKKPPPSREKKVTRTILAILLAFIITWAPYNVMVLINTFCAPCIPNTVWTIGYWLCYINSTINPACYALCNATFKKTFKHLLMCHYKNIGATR
Procedure: as §1, §2

[3] = molecular target: T3, human muscarinic M3 receptor (Homo sapiens, UniProt P20309); experiment: Alphascreen Surefire phospho-ERK1/2 functional assay, M3; details: for EC50: CHO cells stably expressing human M3, read-out: pEC50 M3 (converted); for Emax: CHO, read-out: % Emax cf. ACh, M3, CHO cells stably expressing human M3, relative to ACh; for % Emax cf. ACh, M3: CHO cells stably expressing human M3, relative to ACh
T3 construct: expressed in transfected cells
Procedure: as §1, §2

[4] = molecular target: T4, human muscarinic M4 receptor (Homo sapiens, UniProt P08173); experiment: Alphascreen Surefire phospho-ERK1/2 functional assay, M4; details: for EC50: CHO cells stably expressing human M4, read-out: pEC50 M4 (converted); for Emax: CHO, read-out: % Emax cf. ACh, M4, CHO cells stably expressing human M4, relative to ACh; for % Emax cf. ACh, M4: CHO cells stably expressing human M4, relative to ACh
T4 construct: expressed in transfected cells
T4 sequence (P08173 1-479): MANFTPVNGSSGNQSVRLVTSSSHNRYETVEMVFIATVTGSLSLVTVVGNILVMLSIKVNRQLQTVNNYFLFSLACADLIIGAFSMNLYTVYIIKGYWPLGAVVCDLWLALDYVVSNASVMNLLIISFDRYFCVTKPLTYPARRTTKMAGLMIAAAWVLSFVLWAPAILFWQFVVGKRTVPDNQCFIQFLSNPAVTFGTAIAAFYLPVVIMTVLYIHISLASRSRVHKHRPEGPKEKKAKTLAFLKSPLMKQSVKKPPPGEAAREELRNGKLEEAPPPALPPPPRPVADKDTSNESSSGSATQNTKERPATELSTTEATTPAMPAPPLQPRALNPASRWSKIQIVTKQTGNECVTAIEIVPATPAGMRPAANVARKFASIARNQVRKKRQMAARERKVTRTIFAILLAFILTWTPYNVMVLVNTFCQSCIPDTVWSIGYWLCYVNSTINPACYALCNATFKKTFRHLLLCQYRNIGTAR
Procedure: as §1, §2

T3 sequence (P20309 whole entry): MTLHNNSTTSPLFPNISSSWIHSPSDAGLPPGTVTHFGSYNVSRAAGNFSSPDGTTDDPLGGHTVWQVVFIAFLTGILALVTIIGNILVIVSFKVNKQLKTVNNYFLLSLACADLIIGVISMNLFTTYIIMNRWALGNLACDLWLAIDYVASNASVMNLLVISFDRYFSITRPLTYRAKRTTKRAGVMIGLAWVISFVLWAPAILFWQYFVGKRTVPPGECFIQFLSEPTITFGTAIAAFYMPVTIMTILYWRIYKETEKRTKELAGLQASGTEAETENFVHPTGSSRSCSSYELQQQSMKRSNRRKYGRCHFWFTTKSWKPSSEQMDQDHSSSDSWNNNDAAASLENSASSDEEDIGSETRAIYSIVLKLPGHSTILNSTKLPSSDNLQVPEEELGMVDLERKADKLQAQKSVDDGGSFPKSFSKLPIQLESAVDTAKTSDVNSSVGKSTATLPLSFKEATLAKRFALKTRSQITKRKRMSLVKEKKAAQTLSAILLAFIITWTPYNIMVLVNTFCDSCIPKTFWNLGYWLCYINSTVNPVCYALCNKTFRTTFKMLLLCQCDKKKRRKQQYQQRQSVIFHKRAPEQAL

SMILES: CCOC(=O)N1C2CCC1CC(N1CCCC3(CC1)CNC(=O)C3)C2 (single isomer, unassigned) [Example 9-1 Isomer 2, ethyl 3-(3-oxo-2,8-diazaspiro[4.6]undec-8-yl)-8-azabicyclo[3.2.1]octane-8-carboxylate]
- EC50 [1]: 3.98 nM
- Emax [1]: 103%
- EC50 [2]: > 20000 nM
- Emax [2]: 12%
- EC50 [3]: > 20000 nM
- Emax [3]: 22%
- EC50 [4]: 2.51 nM
- Emax [4]: 60%

SMILES: CCOC(=O)N1CC2CC(N3CCC4(CC3)CNC(=O)O4)CC1C2 (single isomer, unassigned) [Example 6-3 Isomer 2]
- EC50 [1]: 25.1 nM
- Emax [1]: 112%
- EC50 [2]: 1260 nM
- Emax [2]: 24%
- EC50 [3]: > 20000 nM
- Emax [3]: 48%
- EC50 [4]: 39.8 nM
- Emax [4]: 81%

SMILES: CCOC(=O)N1CC2CC(N3CCC4(CC3)CNC(=O)C4)CC1C2 (single isomer, unassigned) [Example 6-2 Isomer 2]
- EC50 [1]: 2 nM
- Emax [1]: 118%
- EC50 [2]: 15.8 nM
- Emax [2]: 30%
- EC50 [3]: > 20000 nM
- Emax [3]: 18%
- EC50 [4]: 3.98 nM
- Emax [4]: 78%

SMILES: CCOC(=O)N1C2CCC1CC(N1CCC3(CC1)CNC(=O)O3)C2 (single isomer, unassigned) [Example 2-14 Isomer 2]
- EC50 [1]: 39.8 nM
- % Emax cf. ACh, M1 [1]: 92%
- EC50 [2]: > 20000 nM
- Emax [2]: 0%
- EC50 [3]: > 20000 nM
- Emax [3]: 0%
- EC50 [4]: 79.4 nM
- % Emax cf. ACh, M4 [4]: 60%

SMILES: [2H]C([2H])([2H])C([2H])([2H])OC(=O)N1C2CCC1CC(N1CCC3(CC1)CNC(=O)C3)C2 (single isomer, unassigned) [Example 2-32 Isomer 2]
- EC50 [1]: 31.6 nM
- % Emax cf. ACh, M1 [1]: 77%
- % Emax cf. ACh, M2 [2]: 15%
- % Emax cf. ACh, M3 ([3]; listed as 2-32 Isomer 2): 1%
- EC50 [4]: 50.1 nM
- % Emax cf. ACh, M4 [4]: 48%

SMILES: CCCN1CC2(CCN(C3CC4CCC(C3)N4C(=O)OCC)CC2)CC1=O (single isomer, unassigned) [Example 2-25 Isomer 2, ethyl 3-(3-oxo-2-propyl-2,8-diazaspiro[4.5]dec-8-yl)-8-azabicyclo[3.2.1]octane-8-carboxylate]
- EC50 [1]: 251 nM
- Emax [1]: 53%
- EC50 [2]: > 20000 nM
- Emax [2]: 15%
- EC50 [3]: > 20000 nM
- Emax [3]: 12%
- EC50 [4]: 251 nM
- Emax [4]: 25%

SMILES: [2H]C([2H])([2H])COC(=O)N1C2CCC1CC(N1CCC3(CC1)CNC(=O)C3)C2 (single isomer, unassigned) [Example 2-31 Isomer 2]
- EC50 [1]: 25.1 nM
- % Emax cf. ACh, M1 ([1]; listed as 2-31 Isomer 2): 76%
- EC50 [2]: > 20000 nM
- Emax [2]: 11%
- EC50 [3]: > 20000 nM
- Emax [3]: 8%
- EC50 [4]: 25.1 nM
- % Emax cf. ACh, M4 ([4]; listed as 2-31 Isomer 2): 26%

SMILES: [2H]C([2H])([2H])C([2H])([2H])OC(=O)N1C2CCC1CC(N1CCC3(CC1)CNC(=O)C3)C2 (single isomer, unassigned) [Example 2-32 Isomer 1]
- EC50 [1]: 79.4 nM
- Emax [1]: 92%
- EC50 [2]: > 20000 nM
- Emax [2]: 16%
- EC50 [3]: > 20000 nM
- % Emax cf. ACh, M3 ([3]; listed as 2-32 Isomer 1): 10%
- EC50 [4]: 126 nM
- Emax [4]: 40%

SMILES: CCOC(=O)N1CC2CCC1CC2N1CCC2(CC1)CNC(=O)C2 (single isomer, unassigned) [Example 3-1 Isomer 3, ethyl 5-(3-oxo-2,8-diazaspiro[4.5]dec-8-yl)-2-azabicyclo[2.2.2]octane-2-carboxylate]
- EC50 [1]: 39.8 nM
- % Emax cf. ACh, M1 ([1]; listed as 3-1 Isomer 3): 101%
- EC50 [2]: > 20000 nM
- % Emax cf. ACh, M2 ([2]; listed as 3-1 Isomer 3): 17%
- % Emax cf. ACh, M3 ([3]; listed as 3-1 Isomer 3): 16%
- EC50 [4]: 158 nM
- % Emax cf. ACh, M4 ([4]; listed as 3-1 Isomer 3): 41%

SMILES: CCOC(=O)N1CC2CCC1CC2N1CCC2(CC1)CNC(=O)O2 (single isomer, unassigned) [Example 3-2 Isomer 2, ethyl 5-(2-oxo-1-oxa-3,8-diazaspiro[4.5]dec-8-yl)-2-azabicyclo[2.2.2]octane-2-carboxylate]
- EC50 [1]: 100 nM
- % Emax cf. ACh, M1 [1]: 127%
- EC50 [4]: 398 nM
- % Emax cf. ACh, M4 [4]: 36%

SMILES: CCOC(=O)N1C2CCC1CC(N1CCCC3(CC1)CNC(=O)O3)C2 (single isomer, unassigned) [Example 9-2 Isomer 4, ethyl 3-(2-oxo-1-oxa-3,8-diazaspiro[4.6]undec-8-yl)-8-azabicyclo[3.2.1]octane-8-carboxylate]
- EC50 [1]: 10 nM
- % Emax cf. ACh, M1 ([1]; listed as 9-2 Isomer 4): 103%
- EC50 [4]: 5.01 nM
- % Emax cf. ACh, M4 ([4]; listed as 9-2 Isomer 4): 66%

SMILES: CC(C)OC(=O)N1C2CCC1CC(N1CCC3(CC1)CNC(=O)C3)C2 (single isomer, unassigned) [Example 2-33 Isomer 2]
- EC50 [1]: 398 nM
- % Emax cf. ACh, M1 ([1]; listed as 2-33 Isomer 2): 62%
- EC50 [4]: 316 nM
- % Emax cf. ACh, M4 [4]: 25%

SMILES: CCCC(=O)N1C2CCC1CC(N1CCC3(CC1)CNC(=O)C3)C2 (single isomer, unassigned) [Example 2-6 Isomer 2]
- EC50 [1]: 501 nM
- Emax [1]: 35%
- EC50 [4]: 15800 nM
- Emax [4]: 32%

SMILES: CCOC(=O)N1C2CCC1CC(N1CCC3(CC1)OC(=O)NC3C)C2 (single isomer, unassigned) [Example 2-15 Isomer 1]
- EC50 [1]: 100 nM
- Emax [1]: 101%
- EC50 [4]: > 20000 nM
- Emax [4]: 10%

SMILES: CCOC(=O)N1C2CCC1C(F)C(N1CCC3(CC1)CNC(=O)C3)C2 (single isomer, unassigned) [Example 2-11 Isomer 1]
- EC50 [1]: 631 nM
- Emax [1]: 95%
- EC50 [4]: 1000 nM
- Emax [4]: 53%

SMILES: CSC(=O)N1C2CCC1CC(N1CCC3(CC1)CNC(=O)C3)C2 (single isomer, unassigned) [Example 2-34 Isomer 1]
- EC50 [1]: 501 nM
- Emax [1]: 50%
- EC50 [4]: > 20000 nM
- Emax [4]: 8%

SMILES: [2H]C([2H])(C)OC(=O)N1C2CCC1CC(N1CCC3(CC1)CNC(=O)C3)C2 (single isomer, unassigned) [Example 2-30 Isomer 1, (1,1-^2H2)ethyl 3-(3-oxo-2,8-diazaspiro[4.5]dec-8-yl)-8-azabicyclo[3.2.1]octane-8-carboxylate]
- EC50 [1]: 126 nM
- % Emax cf. ACh, M1 ([1]; listed as 2-30 Isomer 1): 107%
- EC50 [4]: 200 nM
- Emax [4]: 49%
